Experimental data from patent US20170246160A1, “SOLID PHARMACEUTICAL COMPOSITION” (KYORIN PHARMACEUTICAL CO., LTD., priority 2014, published 2017).

Assay: Dissolution test (paddle method, Japanese Pharmacopoeia Sixteenth Edition), first fluid for dissolution test
Type: physicochemical
Details: for dissolution rate in the first fluid for dissolution test: 30 minutes after initiation, paddle 50 rpm, 37° C., 900 mL, hydrochloride
Protocol: In order to evaluate each of the compositions (tablets) in Example 1 and Comparative Example 1, a dissolution test was performed in accordance with dissolution apparatus 2 (paddle method) in the Japanese Pharmacopoeia Sixteenth Edition. Detailed conditions of the dissolution test are as follows.
In order to evaluate each of the compositions (tablets) in Example 2 and Comparative Example 2, a dissolution test was performed in the same manner as in Test Example 1.

[1] = coated tablets of Example 1 / Comparative Example 1 (direct compression), FIG. 5

Row | dissolution rate in the first fluid for dissolution test [1] | dissolution rate in the first fluid for dissolution test (coated tablets of Example 2 / Comparative Example 2 (wet granulation method), FIG. 6) | dissolution rate in the first fluid for dissolution test (coated tablets of Example 2 / Comparative Example 2 (wet granulation method), FIG. 6, listed as B-form crystal) | dissolution rate in the first fluid for dissolution test compared with the tablet containing Compound 1 (A-form crystal) (tablets of Example 1 vs Comparative Example 1, FIG. 5) | Compound
1 | at most 25% | at most 30% |  |  | COc1c(N2C[C@H](CNC3CC3)[C@H](F)C2)c(F)cc2c(=O)c(C(=O)O)cn(CCF)c12.Cl [Compound 1, 7-[(3S,4S)-3-((cyclopropylamino)methyl)-4-fluoropyrrolidine-1-yl]-6-fluoro-1-(2-fluoroethyl)-8-methoxy-4-oxo-1,4-dihydroquinoline-3-carboxylic acid hydrochloride]
2 | ≥ 80% |  | ≥ 80% | higher | COc1c(N2C[C@H](CNC3CC3)[C@H](F)C2)c(F)cc2c(=O)c(C(=O)O)cn(CCF)c12.Cl [Compound 2, 7-[(3S,4S)-3-{(cyclopropylamino)methyl}-4-fluoropyrrolidine-1-yl]-6-fluoro-1-(2-fluoroethyl)-8-methoxy-4-oxo-1,4-dihydroquinoline-3-carboxylic acid hydrochloride]
